Like-named read-outs stand apart in the source and are kept apart here.

The target in data set [1] is T1, rMnHK (recombinant M. nipponense hexokinase) (Macrobrachium nipponense, UniProt A0A220NLA7).
T1 construct: pET-28a, His tag, E. coli BL21 (DE3); about 70 kDa on SDS-PAGE
T1 sequence (A0A220NLA7 1-449): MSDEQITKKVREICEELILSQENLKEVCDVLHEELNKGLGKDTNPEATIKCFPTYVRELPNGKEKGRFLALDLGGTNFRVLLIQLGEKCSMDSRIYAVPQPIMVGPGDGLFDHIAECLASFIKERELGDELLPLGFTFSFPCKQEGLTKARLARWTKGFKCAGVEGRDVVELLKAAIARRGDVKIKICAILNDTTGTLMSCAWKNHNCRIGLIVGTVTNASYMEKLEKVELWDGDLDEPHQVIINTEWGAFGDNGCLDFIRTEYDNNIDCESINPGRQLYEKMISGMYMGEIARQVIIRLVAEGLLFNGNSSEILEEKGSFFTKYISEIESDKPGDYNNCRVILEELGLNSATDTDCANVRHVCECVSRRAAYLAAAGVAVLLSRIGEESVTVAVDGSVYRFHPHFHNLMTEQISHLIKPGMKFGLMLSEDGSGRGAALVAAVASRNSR
Nature of the data set: enzyme inhibition, Lineweaver-Burk plot. The data set is classed as biochemical. The text has this: enzyme inhibition, Lineweaver-Burk plot on rMnHK (recombinant M. nipponense hexokinase)

Substrate in data set [2]: Nc1ncnc2c1ncn2[C@@H]1O[C@H](COP(=O)(O)OP(=O)(O)OP(=O)(O)O)[C@@H](O)[C@H]1O
Nature of the data set: steady-state kinetics, Michaelis-Menten / Lineweaver-Burk plot. Particulars: co-substrate hexose; assay pH and temperature not stated. The data set is classed as biochemical, Macrobrachium nipponense.

As for `O=P(O)(O)OP(=O)(O)O` [PPi], the Ki in data set [1] (read-out: Inhibitor Studies (Ki) (mM) / PPi) is 0.011 mM. On to `Nc1ncnc2c1ncn2[C@@H]1O[C@H](COP(=O)(O)OP(=O)(O)O)[C@@H](O)[C@H]1O` [ADP], for which the Ki in data set [1] (read-out: Inhibitor Studies (Ki) (mM) / ADP) was 0.76 mM.

B1: rMnHK (recombinant M. nipponense hexokinase) (Macrobrachium nipponense) (protein)
chain: MSDEQITKKVREICEELILSQENLKEVCDVLHEELNKGLGKDTNPEATIKCFPTYVRELPNGKEKGRFLALDLGGTNFRVLLIQLGEKCSMDSRIYAVPQPIMVGPGDGLFDHIAECLASFIKERELGDELLPLGFTFSFPCKQEGLTKARLARWTKGFKCAGVEGRDVVELLKAAIARRGDVKIKICAILNDTTGTLMSCAWKNHNCRIGLIVGTVTNASYMEKLEKVELWDGDLDEPHQVIINTEWGAFGDNGCLDFIRTEYDNNIDCESINPGRQLYEKMISGMYMGEIARQVIIRLVAEGLLFNGNSSEILEEKGSFFTKYISEIESDKPGDYNNCRVILEELGLNSATDTDCANVRHVCECVSRRAAYLAAAGVAVLLSRIGEESVTVAVDGSVYRFHPHFHNLMTEQISHLIKPGMKFGLMLSEDGSGRGAALVAAVASRNSR
notes: pET-28a, His tag, E. coli BL21 (DE3); about 70 kDa on SDS-PAGE
The term Km denotes the concentration of substrate that gives half-maximal velocity. As for B1, the Km in data set [2] amounted to 880 ± 600 µM.
